Measurements published in PMC5635289, “Differential Effects of Angelicin Analogues on NF-κB Activity and IL-8 Gene Expression in Cystic Fibrosis IB3-1 Cells” (Mediators of Inflammation, 2017).

How the values were obtained:
IB3-1 cells = test: Cell proliferation assay on IB3-1 cells; assay type: cell-based; details: Homo sapiens, cell number/ml after 48 h of treatment
Method: Monolayers of 60% confluent IB3-1 cells were seeded in 24- or 12-well plates in LHC-8 medium in the presence of 5% FBS. After 24 h, TMA derivatives were added at serial dilutions and incubated for further 2-3 days. The effects of compounds (TMA derivatives) on the cell proliferation were analyzed as elsewhere described. A first analysis was performed with serial dilutions to obtain 50 μM, 200 μM, and 800 μM solutions. In order to determine IC50 values, the following concentrations were used 12.5, 25, 50, 100, 200, and 800 μM. In order to prepare the cells for counting, they were washed with PBS 1X and detached with trypsin/EDTA. Cells were suspended in physiological solution and counted with a Z2 Coulter Counter (Coulter Electronics, Hialeah, FL, USA). The cell number/ml was determined as IC50 after 2 days of culture, when untreated cells are in log phase of cell growth.
In order to obtain preliminary information on the biological properties of TMA derivatives, their effects on cell growth were examined on IB3-1 cell line, excellent biological model to study new potential anti-inflammatory molecules. The use of this cell line to study the expression of proinflammatory molecules under a variety of stimuli is well established. Monolayers of 60% confluent IB3-1 cells were seeded in 12-well plate in LHC-8 medium with 5% FBS. After 24 h, compounds were added at different concentrations and the cell number/ml was determined after further 48 h of culture.

IL-8 mRNA = test: RT-qPCR quantification of IL-8 mRNA in TNF-α-induced IB3-1 cells; assay type: cell-based, human; details: for inhibition at 10 µM / inhibition at 1 µM: Homo sapiens, IB3-1, 24 h, TNF-α-induced IB3-1 cells, RT-qPCR, na = not active at the used concentrations; for inhibition at 10 µM: 10 μM compound; for inhibition at 1 µM: 1 μM compound; for Inhibition of IL-8 expression (range given): IB3-1 cells, low concentrations (1–10 μM), concentration not specified per value
Method: Monolayers of 60% confluent IB3-1 cells were seeded in 6- or 12-well plates in LHC-8 medium in the presence of 5% FBS. After 24 h, pure derivatives were added, 5 h before stimulation with TNF-α 80 ng/ml (ORF Genetics, Kopavogur, Iceland), and incubated for a further 24 h. Total RNA was extracted using TRIzol Reagent (Sigma-Aldrich, St. Louis, MO) following the manufacturer's instructions. Reverse transcription (RT) was performed using Reverse Transcription System kit (Promega, Madison, WI): 1 μg of total RNA was reverse transcribed in the presence of 5 mM MgCl2, 1X reverse transcription buffer (10 mM Tris-HCl, 50 mM KCl, and 0.1% Triton X-100), 1 mM each dNTPs, 20 U recombinant Rnasin Ribonuclease Inhibitor, 15 U AMV Reverse Transcriptase, and 0.5 μg oligo(dT)15 primers in a total volume of 20 μl for 10 min at 70°C and 60 min at 42°C. The resulting cDNA was quantified by relative quantitative real-time PCR (real-time qPCR). For real-time qPCR, 1 μl of cDNA was used for each SYBR Green reaction to quantify the relative expression of IL-8. Each 25 μl of total reaction volume contained 1 μl of cDNA, 10 pmol of primers, 1 iQTM SYBR Green Supermix (Bio-Rad Laboratories Inc., Hercules, CA). Real-time PCRs were performed for a total of 40 cycles (denaturation, 95°C for 10 s; annealing, 68°C for 30 s for IL-8, 65°C for 30 s for IL-6; elongation, 72°C for 60 s) using an iCycler IQ5 (Bio-Rad Laboratories Inc., Hercules, CA). Primer sequences were as follows: IL-8 forward: 5′-GTGCAGTTTTGCCAAGGAGT-3′ and IL-8 reverse: 5′-TTATGAATTCTCAGCCCTCTTCAAAAACTTCTC-3′. The relative proportions of each amplified template were determined utilizing the threshold cycle (CT) value for each performed PCR. The DDCt method was used to compare gene expression data. Each sample was quantified in duplicate. Changes in mRNA expression level were calculated following normalization with the GAPDH calibrator gene (housekeeping gene) and expressed as fold change over untreated samples [24]. Duplicates of negative controls (no template cDNA) were also run with every experimental plate to assess specificity and indicate potential contamination.
With the aim to study the effective anti-inflammatory properties of these new psoralen derivatives, we decided to further characterize the TMA derivatives for their potential activities on the expression of IL-8 gene, known to be involved in the lung inflammatory process in CF. […] More specifically, we were first interested in identifying compounds with low antiproliferative activity, but effective in downmodulating inflammatory gene expression without achieving a full suppression of these genes. We therefore employed IB3-1 cystic fibrosis cells, incubated for 5 h with two concentrations (1 μM and 10 μM) of selected compounds, and then treated with TNF-α ([…]). In the IB3-1 cystic fibrosis cellular model, NF-κB-dependent genes, including the gene encoding for the proinflammatory protein IL-8, generally are activated following infection with P. aeruginosa or treatment with TNF-α or IL-1β [26, 28, 31]. This feature is very important in the pathophysiology of CF, since several clinical complications are caused by exacerbation of this inflammatory response. After 1 day of incubation, cellular RNA was isolated for RT-qPCR analysis. All the TMA analogues found to be active in inhibiting NF-κB/DNA interactions were analyzed for their effects on inhibition of TNF-α-induced accumulation of IL-8 mRNA.

NF-κB p50 [1] = biological target: T1, NF-κB p50 (Homo sapiens, UniProt P19838); test: EMSA, inhibition of NF-κB/DNA interactions; assay type: binding; details: for Inhibition of NF-κB/DNA complex (MIC): NF-κB p50 and 32P-labeled NF-κB oligonucleotide, MIC = minimal inhibitory concentration, 12.5 μM was the lowest concentration used
T1 construct: This assay was performed using purified NF-κB p50; purchased Promega
T1 sequence (P19838 1-433 limits assumed): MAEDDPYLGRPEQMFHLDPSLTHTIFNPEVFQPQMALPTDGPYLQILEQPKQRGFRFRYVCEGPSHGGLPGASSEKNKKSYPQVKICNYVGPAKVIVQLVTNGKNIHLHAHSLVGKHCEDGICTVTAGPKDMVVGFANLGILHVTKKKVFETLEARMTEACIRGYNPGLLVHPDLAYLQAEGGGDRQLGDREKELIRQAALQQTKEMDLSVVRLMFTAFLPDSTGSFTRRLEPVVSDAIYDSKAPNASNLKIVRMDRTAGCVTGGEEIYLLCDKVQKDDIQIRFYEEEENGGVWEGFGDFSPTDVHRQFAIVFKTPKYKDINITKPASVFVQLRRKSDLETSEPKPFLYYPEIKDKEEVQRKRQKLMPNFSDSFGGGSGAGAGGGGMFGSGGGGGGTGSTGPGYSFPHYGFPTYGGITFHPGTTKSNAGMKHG
Method: Electrophoretic mobility shift assays were performed using double-stranded ^32P-labeled oligonucleotides as target DNA. Binding reactions were set up as previously described in binding buffer (10% glycerol, 0.05% NP-40, 10 mM Tris-HCl pH 7.5, 50 mM NaCl, 0.5 mM DTT, and 10 mM MgCl2), in the presence of 0.1 μl/20 μl of NF-κB p50 (50 gsu) (Promega, Madison, WI, USA) and 0.25 ng of labeled oligonucleotide, in a total volume of 20 μl. After 30 min binding at room temperature, samples were electrophoresed at constant voltage (200 V for 30 min) through a low ionic strength (0.25 TBE buffer) (1 TBE/40.089 M Tris-borate, 0.002 M EDTA) on 6% polyacrylamide gels until the tracking dye (bromophenol blue) reached the bottom of a 16 cm slab. Gels were dried and exposed for autoradiography with intensifying screens at […]. In these experiments, DNA/protein complexes migrate through the gel with slower efficiency. In studies on the inhibitors of protein/DNA interactions, addition of the reagents was as follows: (i) nuclear factors, (ii) active principles, (iii) binding buffer, and (iv) labeled oligonucleotides mimicking the binding sites for TF to be modulated. The nucleotide sequence of double-stranded target DNA utilized in these experiments was 5′-CGC TGG GGA CTT TCC ACG G-3′ (sense strand, NF-κB). The synthetic oligonucleotides utilized in this study were purchased from Sigma Genosys (Sigma Genosys, Cambs, UK). To calculate the effective concentrations, three different autoradiograms obtained from different time exposures were scanned and compared to control EMSA performed without addition of angelicin analogues (two independent experiments were performed).
The effects of TMA derivatives on NF-κB- (nuclear factor-kappaB-) mediated induction of proinflammatory genes was verified first in vitro by electrophoretic mobility shift assay (EMSA) with the aim to verify and quantify the possible inhibition of NF-κB/DNA interactions. This assay was performed using purified NF-κB p50 and ^32P-labeled target NF-κB double-stranded oligonucleotide mimicking the NF-κB consensus sequence present within the IL-8 gene promoter.

NF-κB p50 [2] = biological target: T1, NF-κB p50; parameters: method as in PMID 21148790; details: previous studies; cited from earlier work

Row | Inhibition of NF-κB/DNA complex (MIC) (NF-κB p50 [1]) | Effect on NF-κB/DNA interactions at 100 μM (NF-κB p50 [1]; 100 μM compound) | Compound | IC50 (IB3-1 cells) [µM] | inhibition at 10 µM (IL-8 mRNA) [%] | inhibition at 1 µM (IL-8 mRNA) [%] | Inhibition of IL-8 expression (range given) (IL-8 mRNA) | Concentration inhibiting NF-κB/DNA interactions in EMSA (NF-κB p50 [2]) [µM]
1 | <12.5 (^∗) μM |  | Cc1coc2c1c1occ(C)c1c1oc(=O)cc(C)c21 [Compound 29] | > 800 | 12 |  |  | 
2 | 12.5 to 25 µM |  | Cc1cc(=O)oc2c1cc(C)c1occ(CBr)c12 [Compound 5] | 486 | 31 | 33 |  | 
3 | 12.5 µM |  | Cc1cc(=O)oc2c1cc(Cl)c1occ(C)c12 [Compound 12] | > 800 |  | 0 |  | 
4 | 12.5 to 25 µM |  | Cc1c(C)c2cc(C)c3occc3c2oc1=O [Compound 28] | > 800 | 36 | 21 |  | 
5 | 12.5 to 25 µM |  | Cc1cc2oc(=O)cc(C)c2c2c1C=CCO2 [Compound 36] | > 800 | 74 | 77 |  | 

The next lines start with the compound.

Row | Compound | Inhibition of NF-κB/DNA complex (MIC) (NF-κB p50 [1]) | Effect on NF-κB/DNA interactions at 100 μM (NF-κB p50 [1]; 100 μM compound) | IC50 (IB3-1 cells) [µM] | inhibition at 10 µM (IL-8 mRNA) [%] | inhibition at 1 µM (IL-8 mRNA) [%] | Inhibition of IL-8 expression (range given) (IL-8 mRNA) | Concentration inhibiting NF-κB/DNA interactions in EMSA (NF-κB p50 [2]) [µM]
6 | Cc1cc2c(CO)cc(=O)oc2c2c(C)coc12 [Compound 8] | 25 to 50 µM |  | 398 | 52 | 51 | 52–83% | 
7 | O=c1cc(CO)c2ccc3sccc3c2o1 [Compound 16] | 25 to 50 µM |  | > 800 | 21 | 18 |  | 
8 | Cc1cc(=O)oc2c1ccc1oc(CN)cc12 [Compound 26] | 50 to 100 µM |  | 90.8 | 83 | 55 | 52–83% | 
9 | Cc1cc(=O)oc2c1cc(C)c1occ(C)c12 [TMA, 4,6,4′-trimethylangelicin, reference compound] | higher than 20 μM | able to suppress NF-κB/DNA interactions | 185 ± 30 |  |  |  | 100
